Data from BindingDB's records for doi:10.1021/jm00382a015 (1985).

Target: Adenosylhomocysteinase (Bos taurus)
Experiment: Binding affinity against S-adenosyl-homocysteine hydrolase

| Compound | Ki [µM] |
| --- | --- |
| Nc1nccc2c1ncn2[C@@H]1C[C@H](CO)[C@@H](O)[C@H]1O [3-DEAZAARISTEROMYCIN A] | 0.004 |
| Nc1ncnc2c1nnn2C1CC(CO)C(O)C1O (configuration not stated) [3-(7-amino-3H-[1,2,3]triazolo[4,5-d]pyrimidin-3-yl)-5-hydroxymethyl-1,2-cyclopentanediol] | 22 |
